Laboratory results reported in the NIST ThermoML archive (doi:10.1021/je300736k).
± gives the expanded uncertainty stated by the source.

Details: Liquid, Closed cell (Static) method

SMILES | vapor or sublimation pressure (278.15 K) | vapor or sublimation pressure (283.15 K) | vapor or sublimation pressure (288.15 K) | vapor or sublimation pressure (293.15 K) | vapor or sublimation pressure (298.15 K) | vapor or sublimation pressure (303.15 K) | vapor or sublimation pressure (308.15 K) | vapor or sublimation pressure (313.15 K) | vapor or sublimation pressure (318.15 K) | vapor or sublimation pressure (323.15 K)
CCCO [propan-1-ol] | 0.704 ± 0.027 kPa | 1.012 ± 0.027 kPa | 1.449 ± 0.028 kPa | 2.038 ± 0.028 kPa | 2.838 ± 0.029 kPa | 3.866 ± 0.029 kPa | 5.229 ± 0.03 kPa | 7.006 ± 0.032 kPa | 9.295 ± 0.035 kPa | 12.18 ± 0.037 kPa
CC12CCC(CC1)C(C)(C)O2 [1,3,3-trimethyl-2-oxabicyclo[2.2.2]octane] | 0.071 ± 0.026 kPa | 0.093 ± 0.026 kPa | 0.13 ± 0.026 kPa | 0.178 ± 0.026 kPa | 0.253 ± 0.026 kPa | 0.346 ± 0.026 kPa | 0.477 ± 0.026 kPa | 0.627 ± 0.027 kPa | 0.828 ± 0.027 kPa | 1.101 ± 0.027 kPa
